We go through 26 molecules from ChEMBL document CHEMBL5620362 (Eur J Med Chem, 2023).

Assay [1] concerns the target T1, Nuclear receptor ROR-gamma (Homo sapiens, UniProt P51449).
T1 sequence (P51449 whole entry): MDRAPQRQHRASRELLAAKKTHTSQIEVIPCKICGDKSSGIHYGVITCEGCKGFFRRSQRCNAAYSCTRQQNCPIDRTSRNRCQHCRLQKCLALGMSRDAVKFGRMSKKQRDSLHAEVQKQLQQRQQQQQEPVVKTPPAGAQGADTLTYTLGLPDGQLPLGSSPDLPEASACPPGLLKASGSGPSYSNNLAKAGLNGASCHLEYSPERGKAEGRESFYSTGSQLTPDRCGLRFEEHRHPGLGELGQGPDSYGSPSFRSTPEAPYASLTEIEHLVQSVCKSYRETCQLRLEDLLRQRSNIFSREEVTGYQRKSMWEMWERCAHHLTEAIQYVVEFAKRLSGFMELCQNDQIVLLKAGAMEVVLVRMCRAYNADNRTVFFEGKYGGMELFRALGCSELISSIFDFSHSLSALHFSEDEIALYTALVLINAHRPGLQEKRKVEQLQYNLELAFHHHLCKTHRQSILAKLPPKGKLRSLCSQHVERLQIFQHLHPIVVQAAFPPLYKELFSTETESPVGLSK
Nature of the assay: Binding affinity to CM5 chip-immobilized recombinant ROR-gamma LBD (unknown origin) assessed as dissociation constant by SPR analysis. (Surface plasmon resonance follows binding to a sensor surface in real time, without labels.)

Assay [2] has as its system HPAF-II. Nature of the assay: Antitumor activity against human HPAF-II cells measured after 72 hrs. The format is functional, cell-based.

On to `C=C(C)[C@@H]1CC[C@]2(C(=O)NC3CCCN(C)CC3)CC[C@]3(C)[C@H](CC[C@@H]4[C@@]5(C)CC[C@H](O)C(C)(C)[C@@H]5CC[C@]43C)[C@@H]12` (stereo not given in full), for which the Kd (commonly a measure of binding affinity in units of concentration) in assay [1] was 250 nM. Besides, 110 nM corresponded to half-maximal inhibition in assay [2] (IC50).

As for `C=C(C)[C@@H]1CC[C@]2(C(=O)NCCN(CC)CC)CC[C@]3(C)[C@H](CC[C@@H]4[C@@]5(C)CC[C@H](O)C(C)(C)[C@@H]5CC[C@]43C)[C@@H]12`, the Kd in assay [1] amounted to 720 nM. Moreover, the 50% inhibitory concentration (IC50) (as a rule, the concentration that gives 50% inhibition) in assay [2] was found to be 120 nM.

As for `C=C(C)[C@@H]1CC[C@]2(C(=O)NCCN3CCC(O)C3)CC[C@]3(C)[C@H](CC[C@@H]4[C@@]5(C)CC[C@H](O)C(C)(C)[C@@H]5CC[C@]43C)[C@@H]12` (stereo not given in full), the Kd in assay [1] was found to be 290 nM. Also, the IC50 in assay [2] is 310 nM.

`C=C(C)[C@@H]1CC[C@]2(C(=O)NCCN3CCCC3)CC[C@]3(C)[C@H](CC[C@@H]4[C@@]5(C)CC[C@H](O)C(C)(C)[C@@H]5CC[C@]43C)[C@@H]12`: in assay [1], the Kd came to 870 nM. The molecule also had an IC50 in assay [2] of 230 nM.

As for `CN(C)CCCNC(=O)[C@]12CC[C@@H](C3(C)CC3)[C@@H]1[C@H]1CC[C@@H]3[C@@]4(C)CC[C@H](O)C(C)(C)[C@@H]4CC[C@@]3(C)[C@]1(C)CC2`, the Kd in assay [1] was 240 nM. The same molecule showed an IC50 in assay [2] of 120 nM.

Regarding `C=C(C)[C@@H]1CC[C@]2(C(=O)NCc3cc[nH]n3)CC[C@]3(C)[C@H](CC[C@@H]4[C@@]5(C)CC[C@H](O)C(C)(C)[C@@H]5CC[C@]43C)[C@@H]12`, the Kd in assay [1] came out at 780 nM. Besides, the IC50 in assay [2] was determined as 7030 nM.

For `C=C(C)[C@@H]1CC[C@]2(C(=O)N[C@H]3CCCN(C)C3)CC[C@]3(C)[C@H](CC[C@@H]4[C@@]5(C)CC[C@H](O)C(C)(C)[C@@H]5CC[C@]43C)[C@@H]12`, the Kd in assay [1] amounted to 960 nM. Moreover, the midpoint of inhibition in assay [2], the IC50, lay at 350 nM.

`C=C(C)[C@@H]1CC[C@]2(C(=O)Nc3nccs3)CC[C@]3(C)[C@H](CC[C@@H]4[C@@]5(C)CC[C@H](O)C(C)(C)[C@@H]5CC[C@]43C)[C@@H]12`: in assay [1], the Kd was 5460 nM. Also, in assay [2], the IC50 came out at 1960 nM.

As for `C=C(C)[C@@H]1CC[C@]2(C(=O)N[C@H]3CCN(C)C3)CC[C@]3(C)[C@H](CC[C@@H]4[C@@]5(C)CC[C@H](O)C(C)(C)[C@@H]5CC[C@]43C)[C@@H]12`, the Kd in assay [1] amounted to 1870 nM. In assay [2], this molecule had an IC50 of 210 nM.

For `C=C(C)[C@@H]1CC[C@]2(C(=O)NCCN(CC)CCO)CC[C@]3(C)[C@H](CC[C@@H]4[C@@]5(C)CC[C@H](O)C(C)(C)[C@@H]5CC[C@]43C)[C@@H]12`, the Kd in assay [1] was 1110 nM. This molecule returned an IC50 in assay [2] of 220 nM.

As to `C=C(C)[C@@H]1CC[C@]2(C(=O)NCc3cncs3)CC[C@]3(C)[C@H](CC[C@@H]4[C@@]5(C)CC[C@H](O)C(C)(C)[C@@H]5CC[C@]43C)[C@@H]12`, in assay [1], the Kd came to 780 nM. Further, the IC50 in assay [2] was 9300 nM.

In assay [2], `C=C(C)[C@@H]1CC[C@]2(C(=O)NC[C@@H]3CCN(C)C3)CC[C@]3(C)[C@H](CC[C@@H]4[C@@]5(C)CC[C@H](O)C(C)(C)[C@@H]5CC[C@]43C)[C@@H]12` had an IC50 of 320 nM.

For `C=C(C)[C@@H]1CC[C@]2(C(=O)NCCOCCN(C)C)CC[C@]3(C)[C@H](CC[C@@H]4[C@@]5(C)CC[C@H](O)C(C)(C)[C@@H]5CC[C@]43C)[C@@H]12`, the Kd in assay [1] was 520 nM. Further, in assay [2], the IC50 came to 320 nM.

Turning to `C=C(C)[C@@H]1CC[C@]2(C(=O)NCCNc3ccncc3)CC[C@]3(C)[C@H](CC[C@@H]4[C@@]5(C)CC[C@H](O)C(C)(C)[C@@H]5CC[C@]43C)[C@@H]12`, in assay [1], the Kd worked out at 590 nM. This molecule also had an IC50 in assay [2] of 310 nM.

Take `C=C(C)[C@@H]1CC[C@]2(C(=O)NC[C@H]3CCCN3C)CC[C@]3(C)[C@H](CC[C@@H]4[C@@]5(C)CC[C@H](O)C(C)(C)[C@@H]5CC[C@]43C)[C@@H]12`: the Kd in assay [1] worked out at 420 nM. For the same molecule, the IC50 in assay [2] was found to be 350 nM.

In assay [2], `C=C(C)[C@@H]1CC[C@]2(C(=O)NC[C@H]3CCN(C)C3)CC[C@]3(C)[C@H](CC[C@@H]4[C@@]5(C)CC[C@H](O)C(C)(C)[C@@H]5CC[C@]43C)[C@@H]12` returned an IC50 of 360 nM.

`C=C(C)[C@@H]1CC[C@]2(C(=O)NCCN(C)CCN(C)C)CC[C@]3(C)[C@H](CC[C@@H]4[C@@]5(C)CC[C@H](O)C(C)(C)[C@@H]5CC[C@]43C)[C@@H]12`: in assay [1], the Kd amounted to 1880 nM. Moreover, 380 nM corresponded to half-maximal inhibition in assay [2] (IC50).

For `C=C(C)[C@@H]1CC[C@]2(C(=O)NCCCN(C)C)CC[C@]3(C)[C@H](CC[C@@H]4[C@@]5(C)CC[C@H](N)C(C)(C)[C@@H]5CC[C@]43C)[C@@H]12`, in assay [1], the Kd is 4550 nM. The IC50 in assay [2] is 370 nM.

For `C=C(C)[C@@H]1CC[C@]2(C(=O)N[C@@H]3CCN(C)C3)CC[C@]3(C)[C@H](CC[C@@H]4[C@@]5(C)CC[C@H](O)C(C)(C)[C@@H]5CC[C@]43C)[C@@H]12`, the Kd in assay [1] amounted to 670 nM. For the same molecule, the IC50 in assay [2] turned out to be 380 nM.

As to `C=C(C)[C@@H]1CC[C@]2(C(=O)N[C@@H]3CCCN(C)C3)CC[C@]3(C)[C@H](CC[C@@H]4[C@@]5(C)CC[C@H](O)C(C)(C)[C@@H]5CC[C@]43C)[C@@H]12`, the dissociation constant (Kd) in assay [1] was 340 nM. Moreover, in assay [2], the IC50 was 300 nM.

In the case of `C=C(C)[C@@H]1CC[C@]2(C(=O)NC[C@@H]3CCCN3C)CC[C@]3(C)[C@H](CC[C@@H]4[C@@]5(C)CC[C@H](O)C(C)(C)[C@@H]5CC[C@]43C)[C@@H]12`, in assay [1], the Kd is 660 nM. This molecule also yielded an IC50 in assay [2] of 320 nM.

With `C=C(C)[C@@H]1CC[C@]2(C(=O)NCCCN(C)C)CC[C@]3(C)[C@H](CC[C@@H]4[C@@]5(C)C[C@H](O)C(C)(C)[C@@H]5CC[C@]43C)[C@@H]12`, the Kd in assay [1] was 3060 nM. In assay [2], this molecule displayed an IC50 of 2780 nM.

`C=C(C)[C@@H]1CC[C@]2(C(=O)NC3CCNCC3)CC[C@]3(C)[C@H](CC[C@@H]4[C@@]5(C)CC[C@H](O)C(C)(C)[C@@H]5CC[C@]43C)[C@@H]12`: the Kd in assay [1] is 1960 nM. This molecule had an IC50 in assay [2] of 1210 nM.

For the molecule `C=C(C)[C@@H]1CC[C@]2(C(=O)NCC(C)(C)CN(C)C)CC[C@]3(C)[C@H](CC[C@@H]4[C@@]5(C)CC[C@H](O)C(C)(C)[C@@H]5CC[C@]43C)[C@@H]12`, the Kd in assay [1] was determined as 2900 nM. In assay [2], this molecule yielded an IC50 of 440 nM.

For `C=C1C[C@]2(C)[C@H]3CC[C@@H]4[C@H]5[C@H](C(=C)C)CC[C@]5(C(=O)NCCCN(C)C)CC[C@@]4(C)[C@]3(C)CC[C@H]2C(C)(C)C1=O`, the Kd in assay [1] came out at 6390 nM. In assay [2], this molecule displayed an IC50 of 760 nM.

As to `C=C(C)[C@@H]1CC[C@]2(C(=O)N[C@@H]3CN4CCC3CC4)CC[C@]3(C)[C@H](CC[C@@H]4[C@@]5(C)CC[C@H](O)C(C)(C)[C@@H]5CC[C@]43C)[C@@H]12`, the Kd in assay [1] was found to be 120 nM. In assay [2], this molecule registered an IC50 of 130 nM.
